From EPA's CvTdb concentration-time database (doi:10.1093/toxsci/kfy020)

Legend:
rat [1] = experiment: concentration in plasma after dosing; conditions: male
rat [2] = experiment: concentration in plasma after dosing; conditions: dosed: Chloridazon, 0.80 mg/kg, iv, male, Sprague-Dawley
rat [3] = experiment: concentration in plasma after dosing; conditions: dosed: Chloridazon, 0.80 mg/kg, iv, male, Sprague-Dawley; remark: listed apart in the source
rat [4] = experiment: concentration in plasma after dosing; conditions: dosed: Chloridazon, 4.17 mg/kg, oral, male, Sprague-Dawley
rat [5] = experiment: concentration in plasma after dosing; conditions: dosed: Chloridazon, 4.17 mg/kg, oral, male, Sprague-Dawley; remark: listed apart in the source
rat [6] = experiment: concentration in plasma after dosing; conditions: dosed: Diazinon-o-analog, 5.02 mg/kg, oral, male, Sprague-Dawley
rat [7] = experiment: concentration in plasma after dosing; conditions: dosed: Diazinon-o-analog, 1.02 mg/kg, iv, male, Sprague-Dawley
rat [8] = experiment: concentration in plasma after dosing; conditions: dosed: Diazinon-o-analog, 5.02 mg/kg, oral, male, Sprague-Dawley; remark: listed apart in the source
rat [9] = experiment: concentration in plasma after dosing; conditions: dosed: Diazinon-o-analog, 1.02 mg/kg, iv, male, Sprague-Dawley; remark: listed apart in the source
rat [10] = experiment: concentration in plasma after dosing; conditions: dosed: Flufenacet, 1.0 mg/kg, iv, male, Sprague-Dawley
rat [11] = experiment: concentration in plasma after dosing; conditions: dosed: Flufenacet, 5.2 mg/kg, oral, male, Sprague-Dawley
rat [12] = experiment: concentration in plasma after dosing; conditions: dosed: Flufenacet, 5.2 mg/kg, oral, male, Sprague-Dawley; remark: listed apart in the source
rat [13] = experiment: concentration in plasma after dosing; conditions: dosed: Flufenacet, 1.0 mg/kg, iv, male, Sprague-Dawley; remark: listed apart in the source
rat [14] = experiment: concentration in brain after dosing; conditions: dosed: Imipramine, 10.0000000000 mg/kg, iv, male, Wistar

COc1ccccc1Oc1c(NS(=O)(=O)c2ccc(C(C)(C)C)cc2)nc(-c2ncccn2)nc1OCCO [Bosentan]
concentration in plasma [ng/mL], rat [1], dosed: Bosentan, Wistar
Conditions | 0.5 h | 1 h | 2 h | 2 min | 3 h | 4 h | 6 h | 8 h | 10 min | 20 min
1.0000000000 mg/kg, iv | 168 | 128 | 78.9 | 1950 | 61.3 | 38.3 | 18.3 | 10.5 | 323 | 212
10.0000000000 mg/kg, oral | – | 622 | 608 | – | – | 360 | 157 | 60 | – | –

COC(=O)Nc1nc2ccccc2[nH]1 [Carbendazim]
rat [1], dosed: Carbendazim, 1000.0000000000 mg/kg, oral, Sprague-Dawley
Conditions | concentration in plasma [ng/mL]
0.25 h | 10000
0.5 h | 11600
1 h | 14700
2 h | 20200
4 h | 14100
8 h | 4590
20 h | 49.4

Nc1cnn(-c2ccccc2)c(=O)c1Cl [Chloridazon]
concentration in plasma
Conditions | rat [2] | rat [3] | rat [4] | rat [5]
0.167 h | 228 ng/mL | 0.477 µg/mL | – | –
0.25 h | – | – | 476 ng/mL | 402 ng/mL
0.5 h | 352 ng/mL | 0.349 µg/mL | 636 ng/mL | 466 ng/mL
1 h | 102 ng/mL | 0.106 µg/mL | 858 ng/mL | 863 ng/mL
2 h | 23.6 ng/mL | 0.0114 µg/mL | 586 ng/mL | 337 ng/mL
4 h | 1.66 ng/mL | 0.00103 µg/mL | 158 ng/mL | 64.9 ng/mL
5 min | 371 ng/mL | 0.404 µg/mL | – | –
8 h | 0.333 ng/mL | 0.00172 µg/mL | 3.03 ng/mL | 48.8 ng/mL
24 h | 0.0228 ng/mL | 0.000115 µg/mL | 0.913 ng/mL | 0.604 ng/mL
48 h | 0.0394 ng/mL | – | 0.0563 ng/mL | 0.0265 ng/mL
72 h | – | 0.000116 µg/mL | 0.00435 ng/mL | 0.0146 ng/mL

rat [1], dosed: Chloridazon, Sprague-Dawley
Conditions | concentration in plasma [ng/mL]
0.167 h, 0.80 mg/kg, iv | 54.2
0.25 h, 4.17 mg/kg, oral | 382
0.5 h, 0.80 mg/kg, iv | 144
0.5 h, 4.17 mg/kg, oral | 616
1 h, 0.80 mg/kg, iv | 88
1 h, 4.17 mg/kg, oral | 863
2 h, 0.80 mg/kg, iv | 106
2 h, 4.17 mg/kg, oral | 371
4 h, 0.80 mg/kg, iv | 88.3
4 h, 4.17 mg/kg, oral | 202
5 min, 0.80 mg/kg, iv | 84.5
8 h, 0.80 mg/kg, iv | 0.556
8 h, 4.17 mg/kg, oral | 93.2
24 h, 0.80 mg/kg, iv | 0.0877
24 h, 4.17 mg/kg, oral | 0.329
48 h, 0.80 mg/kg, iv | 0.0282
48 h, 4.17 mg/kg, oral | 0.0714
72 h, 0.80 mg/kg, iv | 0.072

CCOP(=S)(OCC)Oc1nc(Cl)c(Cl)cc1Cl [Chlorpyrifos]
concentration in plasma [ng/mL], rat [1], dosed: Chlorpyrifos, oral, F344
Conditions | 1 h | 3 h | 5 min | 6 h | 12 h | 20 min
5.0000000000 mg/kg | 1.39 | 30 | – | 13.1 | 1.81 | –
10.0000000000 mg/kg | 5.05 | 109 | – | 18.7 | 1.76 | –
50.0000000000 mg/kg | 51 | 326 | 0.559 | 79.3 | 15.5 | 1.42
100.0000000000 mg/kg | 246 | 759 | 0.665 | 202 | 278 | 7.47

CCOP(=O)(OCC)Oc1cc(C)nc(C(C)C)n1 [Diazinon-o-analog]
concentration in plasma
Conditions | rat [6] | rat [7] | rat [8] | rat [9]
0.167 h | – | 374 ng/mL | – | 0.337 µg/mL
0.25 h | 1.77 µg/mL | – | 1.22 µg/mL | –
0.5 h | 0.331 µg/mL | 1340 ng/mL | 1.07 µg/mL | 0.349 µg/mL
1 h | 1.04 µg/mL | 413 ng/mL | 1.06 µg/mL | 0.441 µg/mL
2 h | 0.786 µg/mL | 286 ng/mL | 0.948 µg/mL | 0.294 µg/mL
4 h | 0.745 µg/mL | 188 ng/mL | 0.784 µg/mL | 0.155 µg/mL
5 min | – | 247 ng/mL | – | 0.213 µg/mL
8 h | 0.316 µg/mL | 60.9 ng/mL | 0.291 µg/mL | 0.0595 µg/mL
24 h | 0.00505 µg/mL | 0.552 ng/mL | 0.00431 µg/mL | 0.000498 µg/mL
48 h | 0.000193 µg/mL | 0.0484 ng/mL | 0.000116 µg/mL | –
72 h | 0.00373 µg/mL | – | 0.00121 µg/mL | 0.000247 µg/mL

rat [1], dosed: Diazinon-o-analog, Sprague-Dawley
Conditions | concentration in plasma [ng/mL]
0.167 h, 1.02 mg/kg, iv | 596
0.25 h, 5.02 mg/kg, oral | 916
0.5 h, 1.02 mg/kg, iv | 597
0.5 h, 5.02 mg/kg, oral | 846
1 h, 1.02 mg/kg, iv | 356
1 h, 5.02 mg/kg, oral | 1180
2 h, 1.02 mg/kg, iv | 271
2 h, 5.02 mg/kg, oral | 1140
4 h, 1.02 mg/kg, iv | 174
4 h, 5.02 mg/kg, oral | 715
5 min, 1.02 mg/kg, iv | 564
8 h, 1.02 mg/kg, iv | 57.9
8 h, 5.02 mg/kg, oral | 298
24 h, 1.02 mg/kg, iv | 1.14
24 h, 5.02 mg/kg, oral | 2.63
48 h, 5.02 mg/kg, oral | 1.84
72 h, 1.02 mg/kg, iv | 0.481
72 h, 5.02 mg/kg, oral | 0.239

COc1ccc([C@@H]2Sc3ccccc3N(CCN(C)C)C(=O)[C@@H]2OC(C)=O)cc1 [Diltiazem]
concentration in plasma [ng/mL], rat [1], dosed: Diltiazem, 20.0000000000 mg/kg, Sprague-Dawley
Conditions | 0.16 h | 0.25 h | 1 h | 1.5 h | 2 h | 3 h | 4 h | 6 h | 8 h | 10 h
iv | 7870 | 5050 | 2530 | 1510 | 956 | 636 | 202 | 69.3 | 78 | 22.5
oral | 1220 | 488 | 248 | 189 | 271 | 160 | 52.8 | 19.4 | – | –

CC(C)N(C(=O)COc1nnc(C(F)(F)F)s1)c1ccc(F)cc1 [Flufenacet]
concentration in plasma
Conditions | rat [10] | rat [11] | rat [12] | rat [13]
0.167 h | 80600 pg/mL | – | – | 52.4 ng/mL
0.25 h | – | 2160 pg/mL | 708 pg/mL | –
0.5 h | 13600 pg/mL | 1320 pg/mL | 410 pg/mL | 8.65 ng/mL
1 h | 1820 pg/mL | 462 pg/mL | 274 pg/mL | 4.31 ng/mL
2 h | 896 pg/mL | 220 pg/mL | 256 pg/mL | 3.42 ng/mL
4 h | 328 pg/mL | 135 pg/mL | 198 pg/mL | 2.88 ng/mL
5 min | 195000 pg/mL | – | – | 128 ng/mL
8 h | 70.9 pg/mL | 116 pg/mL | 150 pg/mL | 0.0986 ng/mL
24 h | 59.5 pg/mL | 17.9 pg/mL | 24.9 pg/mL | 0.044 ng/mL
48 h | 26.4 pg/mL | 12.8 pg/mL | 17 pg/mL | 0.026 ng/mL
72 h | 35.2 pg/mL | 20.8 pg/mL | 22.4 pg/mL | 0.0121 ng/mL

rat [1], dosed: Flufenacet, Sprague-Dawley
Conditions | concentration in plasma [ng/mL]
0.167 h, 1.0 mg/kg, iv | 20.4
0.25 h, 5.2 mg/kg, oral | 0.81
0.5 h, 1.0 mg/kg, iv | 4.05
0.5 h, 5.2 mg/kg, oral | 0.401
1 h, 1.0 mg/kg, iv | 3.72
1 h, 5.2 mg/kg, oral | 0.451
2 h, 1.0 mg/kg, iv | 1.81
2 h, 5.2 mg/kg, oral | 0.188
4 h, 1.0 mg/kg, iv | 2.03
4 h, 5.2 mg/kg, oral | 0.146
5 min, 1.0 mg/kg, iv | 48.6
8 h, 1.0 mg/kg, iv | 2.1
8 h, 5.2 mg/kg, oral | 0.0824
24 h, 1.0 mg/kg, iv | 0.0352
24 h, 5.2 mg/kg, oral | 0.0158
48 h, 1.0 mg/kg, iv | 0.0229
48 h, 5.2 mg/kg, oral | 0.0322
72 h, 1.0 mg/kg, iv | 0.0508
72 h, 5.2 mg/kg, oral | 0.0214

CNC(=O)Oc1cccc(N=CN(C)C)c1.Cl [Formetanate hydrochloride]
concentration in plasma [ng/mL], rat [1], dosed: Formetanate hydrochloride, Sprague-Dawley
Conditions | 0.25 h | 1 h | 2 h | 24 h | 48 h | 72 h
1.0000000000 mg/kg, iv | – | – | – | 7.9 | 2.2 | –
5.0000000000 mg/kg, oral | 262 | 53.2 | 9.57 | 1.64 | 12.4 | 5.13

CN(C)CCCN1c2ccccc2CCc2ccccc21 [Imipramine]
rat [14]
Conditions | concentration in brain [µg/g]
1 h | 8.5
2 h | 3.6
4 h | 1.61
5 min | 14.7
10 min | 15.1

concentration in plasma [ng/mL], rat [1], dosed: Imipramine
Conditions | 0.1287 h | 0.25 h | 0.5 h | 1 h | 2 h | 4 h | 8 h | 16 h | 24 h | 208 s
10.0000000000 mg/kg, iv, Wistar | 1620 | – | 853 | 719 | 238 | 46.3 | – | – | – | 2340
50.0000000000 mg/kg, oral, Sprague-Dawley | – | 99.1 | 75.7 | 120 | 73.9 | 58.7 | 38.6 | 33.5 | 28.3 | –
